This assay concerns the target TLR4 (toll-like receptor 4) (Homo sapiens, UniProt O00206). The assay can be described thus: TLR4 ELISA on lysates of human PBMCs treated with AVR-25 for […] h, dose response. It is filed as cell-based.

Sequence of TLR4 (toll-like receptor 4) (O00206 24-839): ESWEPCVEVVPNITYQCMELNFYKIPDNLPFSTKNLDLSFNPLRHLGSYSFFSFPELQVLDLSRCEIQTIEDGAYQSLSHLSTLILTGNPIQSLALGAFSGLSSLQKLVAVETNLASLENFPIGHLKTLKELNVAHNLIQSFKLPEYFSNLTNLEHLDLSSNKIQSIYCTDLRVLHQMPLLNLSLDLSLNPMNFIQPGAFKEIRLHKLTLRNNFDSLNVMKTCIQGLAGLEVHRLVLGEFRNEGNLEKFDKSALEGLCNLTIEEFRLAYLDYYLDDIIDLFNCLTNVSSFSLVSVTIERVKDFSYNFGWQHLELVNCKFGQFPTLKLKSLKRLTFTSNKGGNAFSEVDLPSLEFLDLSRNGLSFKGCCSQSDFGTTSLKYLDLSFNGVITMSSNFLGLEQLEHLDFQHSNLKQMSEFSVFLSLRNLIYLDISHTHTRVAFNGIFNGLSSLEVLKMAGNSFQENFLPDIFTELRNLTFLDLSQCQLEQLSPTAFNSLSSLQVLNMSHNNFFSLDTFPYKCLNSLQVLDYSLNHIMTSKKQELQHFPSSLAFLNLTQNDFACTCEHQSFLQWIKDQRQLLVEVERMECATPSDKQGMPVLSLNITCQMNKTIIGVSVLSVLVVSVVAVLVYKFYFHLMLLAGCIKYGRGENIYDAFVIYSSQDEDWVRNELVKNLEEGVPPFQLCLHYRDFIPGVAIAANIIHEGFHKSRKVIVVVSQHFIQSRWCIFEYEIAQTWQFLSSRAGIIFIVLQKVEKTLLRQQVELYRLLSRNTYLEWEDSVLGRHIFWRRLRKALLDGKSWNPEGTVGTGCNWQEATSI

For orientation: IC50 means the concentration at which inhibition is half-maximal. The molecule `CC(=O)N[C@H]1[C@H](OC2CCCCC2)O[C@H](CO)[C@@H](O[C@@H]2O[C@H](CO)[C@@H](O)[C@H](O)[C@H]2NC(C)=O)[C@@H]1O` [AVR-25, N-((2R,3R,4R,5S,6R)-5-(((2S,3R,4R,5S,6R)-3-acetamido-4,5-dihydroxy-6-(hydroxymethyl)tetrahydro-2H-pyran-2-yl)oxy)-2-(cyclohexyloxy)-4-hydroxy-6-(hydroxymethyl)tetrahydro-2H-pyran-3-yl)acetamide] showed an IC50 of 150 nM.

(Values after publication PMC6393422, “Novel Chitohexaose Analog Protects Young and Aged mice from CLP Induced Polymicrobial Sepsis” (Scientific Reports, 2019).)
